Results from ChEMBL document CHEMBL5537201, “Discovery of Unique Bis-Substituted Aromatic Amide Derivatives as Novel Highly Potent Antibiotics for Combating Methicillin-Resistant Staphylococcus aureus (MRSA)” (J Med Chem, 2024).
Calls of active or inactive are those of the source.

Key:
Staphylococcus aureus [1] = assay: Binding affinity to methicillin resistant Staphylococcus aureus clinical isolate MRS153 Phosphatidylglycerol assessed as change in MIC at upto 256 ug/ml measured after 22 hrs; conditions: dose <= 256.0 µg/ml
Staphylococcus aureus [2] = assay: Antimicrobial activity against methicillin resistant Staphylococcus aureus clinical isolate MRS207 assessed as reduction in bacterial growth incubated for 24 hrs by two-fold broth dilution method; assay type: functional
Cell membrane [3] = assay: Induction of Outer membrane disruption in Staphylococcus aureus ATCC6538 assessed as […] in fluorescence intensity measured upto 30 mins by NPN dye based fluorescence analysis; assay type: cell membranes
Staphylococcus aureus [4] = assay: Antimicrobial activity against Staphylococcus aureus ATCC6538 assessed as reduction in bacterial growth incubated for 24 hrs by two-fold broth dilution method; assay type: functional
Cell membrane [5] = assay: Induction of inner membrane permeabilization in Staphylococcus aureus ATCC6538 assessed as disruption of cell membrane by measuring rightward shift measured after by PI staining based flow cytometry analysis; assay type: cell membranes
Staphylococcus aureus [6] = assay: Antimicrobial activity against methicillin resistant Staphylococcus aureus clinical isolate MRS108 assessed as reduction in bacterial growth incubated for 24 hrs by two-fold broth dilution method; assay type: functional
Staphylococcus aureus [7] = assay: Antimicrobial activity against Staphylococcus aureus ATCC6538 assessed as increase in ROS levels measured upto 180 mins in presence of 2,2'-bipyridyl and thiourea by H2DCFDA probe based flow cytometry; assay type: functional, organism-based
[8] = Binding affinity to Staphylococcus aureus ATCC6538 Phosphatidylethanolamine assessed as dissociation constant by ITC analysis
Staphylococcus aureus [9] = assay: Antimicrobial activity against methicillin resistant Staphylococcus aureus clinical isolate MRS1 assessed as reduction in bacterial growth incubated for 24 hrs by two-fold broth dilution method; assay type: functional
[10] = Toxicity in BALB/c mouse assessed as as effect on heart at 25 to 50 mg/kg, iv by H and E staining based analysis; assay type: organism-based; conditions: in vivo, dose 25-50 mg/kg
Cell membrane [11] = assay: Disruption of cell membrane integrity in Staphylococcus aureus ATCC6538 assessed as increase in fluorescence intensity at 1 to 26 times MIC measured upto 36 mins ethidium bromide uptake assay; assay type: cell membranes
[12] = Toxicity in BALB/c mouse assessed as as change in AST level at 25 to 50 mg/kg, iv; assay type: organism-based; conditions: in vivo, dose 25-50 mg/kg
Cell membrane [13] = assay: Induction of Outer membrane disruption in methicillin resistant Staphylococcus aureus clinical isolate MRS153 assessed as […] in fluorescence intensity measured upto 30 mins by NPN dye based fluorescence analysis; assay type: cell membranes
[14] = Binding affinity to Staphylococcus aureus ATCC6538 Cardiolipin assessed as dissociation constant by ITC analysis
[15] = Toxicity in BALB/c mouse assessed as as effect on spleen at 25 to 50 mg/kg, iv by H and E staining based analysis; assay type: organism-based; conditions: in vivo, dose 25-50 mg/kg
A549 = assay: Cytotoxicity against human A549 cells assessed as reduction in cell viability measured after 24 hrs by CCK-8 method; assay type: functional, cell-based; conditions: A549, 24 h
Staphylococcus aureus [16] = assay: Antimicrobial activity against methicillin resistant Staphylococcus aureus clinical isolate MRS23 assessed as reduction in bacterial growth incubated for 24 hrs by two-fold broth dilution method; assay type: functional
Staphylococcus aureus [17] = assay: Upregulation of multidrug efflux pump genes in Staphylococcus aureus ATCC6538 at 5 ug/ml incubated for 2 hrs by RNA sequencing analysis; assay type: functional; conditions: dose 5.0 µg/ml
[18] = Toxicity in BALB/c mouse assessed as as effect on liver at 25 to 50 mg/kg, iv by H and E staining based analysis; assay type: organism-based; conditions: in vivo, dose 25-50 mg/kg
Staphylococcus aureus [19] = assay: Induction of membrane morphological changes in Staphylococcus aureus ATCC6538 assessed as formation of cell pit at 5 times of MIC measured after 0.5 hrs by FE-SEM analysis; assay type: functional, organism-based
Staphylococcus aureus [20] = assay: Antimicrobial activity against methicillin resistant Staphylococcus aureus clinical isolate MRS153 assessed as proton dynamic dissipation at pH 5 to 11; assay type: functional, organism-based
Staphylococcus hominis [21] = assay: Bactericidal activity against multidrug-resistant Staphylococcus hominis at 5 ug/ml measured upto 150 mins; assay type: functional, organism-based; conditions: dose 5.0 µg/ml
Staphylococcus aureus [22] = assay: Antimicrobial activity against Staphylococcus aureus N315 assessed as reduction in bacterial growth incubated for 24 hrs by two-fold broth dilution method; assay type: functional
Staphylococcus aureus [23] = assay: Antimicrobial activity against methicillin resistant Staphylococcus aureus clinical isolate MRS84 assessed as reduction in bacterial growth incubated for 24 hrs by two-fold broth dilution method; assay type: functional
Staphylococcus aureus [24] = assay: Induction of membrane morphological changes in Staphylococcus aureus ATCC6538 assessed as cell rupture at 5 times of MIC measured after 0.5 hrs by FE-SEM analysis; assay type: functional, organism-based
[25] = Cytotoxicity against HEK293 cells assessed as reduction in cell viability measured after 24 hrs by CCK-8 method; assay type: toxicity, cell-based; conditions: human
Staphylococcus aureus [26] = assay: Bactericidal activity against norfloxacin-resistant Staphylococcus aureus ATCC6538 at 5 ug/ml measured upto 150 mins; assay type: functional, organism-based; conditions: dose 5.0 µg/ml
Cell membrane [27] = assay: Induction of inner membrane permeabilization in Staphylococcus aureus ATCC6538 assessed as increase in […] fluorescence at 5 ug/ml by PI staining based analysis; assay type: cell membranes; conditions: dose 5.0 µg/ml
Staphylococcus hominis [28] = assay: Antimicrobial activity against methicillin-resistant Staphylococcus hominis assessed as reduction in bacterial growth incubated for 24 hrs by two-fold broth dilution method; assay type: functional
Staphylococcus aureus [29] = assay: Bactericidal activity against methicillin-resistant Staphylococcus aureus clinical isolate MRS97 at 5 ug/ml measured upto 150 mins; assay type: functional, organism-based; conditions: dose 5.0 µg/ml
Staphylococcus aureus [30] = assay: Induction of membrane morphological changes in Staphylococcus aureus ATCC6538 assessed as cell surface wrinkling at 5 times of MIC measured after 0.5 hrs by FE-SEM analysis; assay type: functional, organism-based
Staphylococcus aureus [31] = assay: Antibacterial activity against methicillin-resistant Staphylococcus aureus clinical isolate MRS153 infected in C57BL/6N mouse model assessed as reversal of cell morphology to normal state at 3.125 to 12.5 mg/kg, iv; assay type: functional, organism-based; conditions: dose 3.125-12.5 mg/kg
[32] = Hemolytic activity in rabbit Red blood cell assessed as hemolysis incubated for 1 hr by two-fold microdilution method; assay type: toxicity, cell-based, Oryctolagus cuniculus, Erythrocyte; conditions: red blood cells (erythrocytes)
Staphylococcus aureus [33] = assay: Bactericidal activity against vancomycin-resistant Staphylococcus aureus ATCC6538 measured upto 120 mins by colony counting method; assay type: functional, organism-based
Staphylococcus aureus [34] = assay: Upregulation of ABC transport family genes in Staphylococcus aureus ATCC6538 at 5 ug/ml incubated for 2 hrs by RNA sequencing analysis; assay type: functional; conditions: dose 5.0 µg/ml
Cell membrane [35] = assay: Induction of inner membrane permeabilization in Staphylococcus aureus ATCC6538 assessed as increase in red fluorescence at 5 ug/ml by PI staining based analysis; assay type: cell membranes; conditions: dose 5.0 µg/ml
Staphylococcus aureus [36] = assay: In vivo antibacterial activity against methicillin-resistant Staphylococcus aureus clinical isolate MRS153 infected in C57BL/6N mouse model assessed as reduction in bacterial load in heart at 3.125 to 12.5 mg/kg, iv measured after 24 hrs; assay type: functional, organism-based; conditions: dose 3.125-12.5 mg/kg
HeLa = assay: Cytotoxicity against human HeLa cells assessed as reduction in cell viability measured after 24 hrs by CCK-8 method; assay type: functional, cell-based
Staphylococcus aureus [37] = assay: Antimicrobial activity against methicillin resistant Staphylococcus aureus clinical isolate MRS153 assessed as reduction in bacterial growth incubated for 24 hrs by two-fold broth dilution method; assay type: functional
Peptidoglycan = assay: Binding affinity to methicillin resistant Staphylococcus aureus clinical isolate MRS153 peptidoglycan assessed as change in MIC at upto 256 ug/ml measured after 22 hrs; conditions: dose <= 256.0 µg/ml

O=C(CCC(F)(F)F)N(Cc1cc2ccccc2s1)c1cc(-c2noc(C(F)(F)F)n2)ccc1O
Non-Toxic: Activity [10] | Activity [12] | Activity [15] | Activity [18]
1 µg/mL: MIC (Staphylococcus aureus [2]) | MIC (Staphylococcus aureus [6]) | MIC (Staphylococcus aureus [9]) | MIC (Staphylococcus hominis [28]) | MIC (Staphylococcus aureus [37])
2 µg/mL: MIC (Staphylococcus aureus [16]) | MIC (Staphylococcus aureus [23])
2400 µg/mL: HC50 at 1 h [32]
> 25 µg/mL: IC50 (HeLa)
active: Activity (Cell membrane [3]) Dose-Dependent Effect | Activity (Cell membrane [5]) | Activity (Cell membrane [11]) | Activity (Cell membrane [13]) Dose-Dependent Effect | Activity (Staphylococcus aureus [17]) | Activity (Staphylococcus aureus [19]) | Activity (Staphylococcus aureus [20]) | Activity (Staphylococcus hominis [21]) | Activity (Staphylococcus aureus [24]) | Activity (Staphylococcus aureus [26]) | Activity (Cell membrane [27]) | Activity (Staphylococcus aureus [29]) | Activity (Staphylococcus aureus [30]) | Activity (Staphylococcus aureus [31]) | Activity (Staphylococcus aureus [33]) Dose-Dependent Effect | Activity (Staphylococcus aureus [34]) | Activity (Cell membrane [35]) | Activity (Staphylococcus aureus [36])
183 µM: Kd [8]
5.75 µM: Kd [14]
16.8 µg/mL: IC50 (A549)
16.9 µg/mL: IC50 at 24 h [25]
inactive: Activity (Staphylococcus aureus [1]) | Activity (Staphylococcus aureus [7]) | Activity (Peptidoglycan)
0.25 µg/mL: MIC (Staphylococcus aureus [4]) | MIC (Staphylococcus aureus [22])
